# Reference: US8268306B2, “Pesticidal and antiparasitic compositions” (Centro de Ingenieria Genetica y Biotecnologia, priority 2001, dated 2012)
# Tests used:
# Haemonchus spp = test: In vitro nematicidal effect of hydrogen sulfide and chitinase, egg hatching; assay type: cell-based; conditions: Haemonchus eggs, emerging larvae after 24 hours; fraction E = 1 − Ntto/Nc; mean of 4 replicas
# Experimental: (§1) Eggs from zoonematodes Haemonchus spp and Trichostrongylus colubriformis and Dictyocaulus viviparus were used, as well as parasitic phytonematode larvae (juveniles 2) from Melodoigyne incognita.
# (§2) Collections of Haemonchus spp and Trichostrongylus colubriformis nematodes were made from ovine (sheep) and bovine (cattle) abomasa, respectively. The adult female nematodes were washed in a physiological solution and treated with “Hibitane” (Chlorhexidine Acetate) at 0.5%, for 1 minute, the process developed at 37° C. Approximately 100 previously disinfected individuals were introduced into an Erlenmeyer containing 50 ml of LB medium solution, diluted 10 times in distilled sterile water, and were left laying their eggs overnight (8-10 hours).
# (§3) From that moment on, manipulation was done under aseptic conditions in a vertical laminar flow, using 24-well tissue culture plates. The total volume of the medium that contained the females and the eggs was filtered with a sift net of 60 μm. The nematode eggs were trapped on the 30 μm net of a second sifts. It was introduced into a Hibitane solution at 0.5% for 3 minutes, followed by three washes with LB medium diluted 10 times in sterile distilled water.
# (§4) Once disinfected, the eggs were removed from the sift and were carefully resuspended with a LB medium solution diluted 10 times in sterile distilled water. The final result of the distribution was checked by counting and registering the eggs in each well with an inverted Olympus microscope, observations of the uniformity of the evolutionary state in this phase were made too.
# (§5) The Haemonchus spp and T. colubriformis' eggs hatch between 24 and 48 hours of incubation at 28° C., whereas the D. vivparus' eggs hatch before 24 hours. A good sample preparation is accomplished when in all the untreated controls more than 60% of hatching occurs in the previously foreseen times for each species.
# (§6) The nematode's eggs and larvae were placed in a number of 100 individuals in approximately 2 ml of LB medium diluted 10 times. This volume was introduced into safety valves that allow the air to go through the liquid and, therefore, the gasses make contact with the eggs and larvae. Every valve was a replica for each treatment.
# (§7) The hydrogen sulfide was obtained by a reaction against the chloride acid of two sulfide salts (Na2S and FeS), and from an anaerobial fermentation of bacterium Desulfovibrio desulfuricans subs. desulfuricans ATCC 27774 (isolated from an ovine rumen). The chitinolytic enzyme used was chitinase SIGMA C 1650, from bacterium Serratia marcescens.
# (§8) The nematode's eggs and larvae under the study were subjected to the following treatments for 24 hours:
# (§9) 1. Control treatment: chitinase not applied, and air circulated through the valve.
# (§10) 2. Chitinase treatment: chitinase at a rate of 0.2 units per replica.
# (§11) 3. Sulfide treatment: hydrogen sulfide from Na2S with a 0.2 flux at 0.3 mg/minute.
# (§12) 4. Sulfide treatment: hydrogen sulfide from FeS with a 0.2 flux at 0.3 mg/minute.
# (§13) 5. Sulfide treatment: hydrogen sulfide from Desulfovibrio desulfuricans with a 0.2 flux at 0.3 mg/minute.
# (§14) 6. Combined treatment: simultaneous application of treatments 2 and 3.
# (§15) 7. Combined treatment: simultaneous application of treatments 2 and 4.
# (§16) 8. Combined treatment: simultaneous application of treatments 2 and 5.
# (§17) All the above treatments had 4 replicas.
# (§18) Twenty-four hours after starting the experiment the emerging larvae (Haemonchus sp., T. colubriformis and D. viviparous) and the number of live larvae (Melodogyne incognita) in all the treatments, were counted. This value is the mean of the 4 replicas in every treatment. The variance analysis (ANOVA) was applied to the results obtained in each nematode species in the study, separately; the Duncan test (Lerch G. 1977. La Experimentación en las ciencias biológicas y agrícolas. 1^ra edición, p.p. 203-308, Editorial Científico-Técnica, La Habana) was applied, which is also shown in table 1. […]
# [1] = test system: Trichostrongylus colubriformis; test: as above; assay type: cell-based; conditions: Trichostrongilus eggs, emerging larvae after 24 hours; fraction E = 1 − Ntto/Nc; mean of 4 replicas
# Experimental: as §1, §2, §3, §4, §5, §6, §7, §8, §9, §10, §11, §12, §13, §14, §15, §16, §17, §18
# Melodoigyne incognita = test: In vitro nematicidal effect of hydrogen sulfide and chitinase, live larvae (juveniles 2); assay type: cell-based, Meloidogyne incognita; conditions: Meloidogyne larvae, live larvae after 24 hours; fraction E = 1 − Ntto/Nc; mean of 4 replicas
# Experimental: as §1
# The collection of egg mass of Meloidogyne incognita was performed from squash roots (Cucurbita pepo), previously infested and cultivated in greenhouses. For this operation a stereoscope microscope and needles with properly altered tips were used. The masses were put in sterile distilled water in Petri dishes at 28° C., in a number of 50 masses per dish. Daily observations were made to check egg hatching. In approximately 72 hours, there were enough larvae to start collecting and disinfecting.
# The total volume of water containing the egg masses and the larvae were filtered through a sift net of 60 μm. From that moment on all the manipulation was done under aseptic conditions in a vertical laminar flow, using 24-well tissue culture plates. The eggs detached from the mass were unable to hatch and remained on the sift net of 30 μm; the larvae were collected with a further net of 5 μm. It was introduced into a Hibitane solution at 0.5% for 3 minutes followed by 3 washes with LB medium diluted 10 times in sterile distilled water. Once disinfected, the Meloidogyne incognita larvae were removed from the sift net and carefully resuspended with a LB medium solution diluted 10 times in sterile distilled water. The final collecting and disinfecting results were checked by counting and registering the live larvae with an inverted Olympus microscope.
# The nematode's eggs and larvae were placed in a number of 100 individuals in approximately 2 ml of LB medium diluted 10 times. This volume was introduced into safety valves that allow the air to go through the liquid and, therefore, the gasses make contact with the eggs and larvae. Every valve was a replica for each treatment. […]
# (§19) Twenty-four hours after starting the experiment the emerging larvae (Haemonchus sp., T. colubriformis and D. viviparous) and the number of live larvae (Melodogyne incognita) in all the treatments, were counted. […]
# Dictyocaulus viviparus = test: In vitro nematicidal effect of hydrogen sulfide and chitinase, egg hatching; assay type: cell-based; conditions: Dictyocaulus eggs, emerging larvae after 24 hours; fraction E = 1 − Ntto/Nc; mean of 4 replicas
# Experimental: as §1
# Collections of D. viviparous nematode were made from the infested lung of a bovine (cattle), previously sacrificed. The same procedure was used for Haemochus spp. and T. colubriformis; however, the females were allowed to lay their eggs for 2-3 hours.
# as §3, §4, §5
# The nematode's eggs and larvae were placed in a number of 100 individuals in approximately 2 ml of LB medium diluted 10 times. This volume was introduced into safety valves that allow the air to go through the liquid and, therefore, the gasses make contact with the eggs and larvae. […]
# as §19
SMILES,Treatment effectiveness (E) (Haemonchus spp),Treatment effectiveness (E) [1],Treatment effectiveness (E) (Melodoigyne incognita),Treatment effectiveness (E) (Dictyocaulus viviparus)
"S [5. Esd, hydrogen sulfide]",0.37,0.38,0.47,0.40
"S [3. Esn, hydrogen sulfide]",0.41,0.40,0.51,0.44
"S [4. Esf, hydrogen sulfide]",0.40,0.39,0.52,0.42
